Consider 50 compounds from US6872729B2, “Pyrimidinylbenzimidazole and triazinylbenzimidazole derivatives and agricultural/horticultural fungicides” (Kumiai Chemical Industry Co., Ltd., priority 1998, dated 2005).

The structures appear in SMILES notation.

The subject of this experiment is Erysiphe graminis. The experiment can be described thus: Test for preventive effect on wheat powdery mildew. The class given is in vivo. The settings on record: wheat (Norin-61-go) seedlings, 500 ppm active ingredient, preventive treatment; diseased area of first leaves 10 days after inoculation with Erysiphe graminis. As to the method: Test for Preventive Effect on Wheat Powdery Mildew 9 Wheat seeds (variety: Norin-61-go) were sown in each 9 cm×9 cm polyvinyl chloride pot, grown in a greenhouse for 8 days, then treated with 10 ml per pot of aqueous solutions of wettable powders prepared in accordance with Formulation Example 2, at a concentration of 500 ppm in terms of the active ingredients and dried in the air. Then, the seedlings were inoculated with Erysiphe graminis spores by sprinkle over the plant and placed in a greenhouse of from 20 to 25° C. 10 days after the inoculation, the total diseases area of the first leaves in each pot was observed and evaluated on the basis of the standards shown in Table 67. [table]
Turning to `CCOc1cc(OCC)nc(-n2c(CC)nc3ccccc32)n1` [Compound I-462], the Biological effectiveness result was “B (Diseased area of less than 25%)”.

Regarding `COc1ccnc(-n2c(C)nc3cc(C)ccc32)n1` [Compound I-672], the Biological effectiveness result is on record as “B (Diseased area of less than 25%)”.

For the compound `C=CCOc1nc(OCC=C)nc(-n2c(C)nc3cc(Cl)ccc32)n1` [Compound I-601], the Biological effectiveness result is recorded as “A (No diseased area)”.

Consider `CCc1cc(CC)nc(-n2cnc3ccccc32)n1` [Compound I-1093], for which the Biological effectiveness result is given as “A (No diseased area)”.

As for `COc1cc(OC)nc(-n2c(C3CC3)nc3ccccc32)n1` [Compound I-10], the Biological effectiveness entry is “B (Diseased area of less than 25%)”.

As to `COc1ccc2ncn(-c3nc(OC)cc(OC)n3)c2c1` [Compound I-116], the Biological effectiveness result is “B (Diseased area of less than 25%)”.

Regarding `CCOc1ccnc(-n2c(C(F)(F)F)nc3cc(Cl)ccc32)n1` [Compound I-704], the Biological effectiveness result is reported as “B (Diseased area of less than 25%)”.

`CSc1nc(SC)nc(-n2c(C)nc3cc(Cl)ccc32)n1` [Compound I-1043]: the Biological effectiveness result was “A (No diseased area)”.

On to `COc1cc(OC)nc(-n2c(Cl)nc3cc(F)ccc32)n1` [Compound I-255], for which the Biological effectiveness result was “A (No diseased area)”.

For `COc1nc(C2CC2)nc(-n2c(C)nc3cc(C)ccc32)n1` [Compound I-1019], the Biological effectiveness result is “A (No diseased area)”.

Regarding `COc1ccnc(-n2cnc3cc(C)ccc32)n1` [Compound I-670], the Biological effectiveness entry is recorded as “B (Diseased area of less than 25%)”.

Take `COc1nc(OC)nc(-n2c(C)nc3cc(OC(F)(F)F)ccc32)n1` [Compound I-229]: the Biological effectiveness entry was “A (No diseased area)”.

For `COc1cc(OC)nc(-n2c(C(Cl)(Cl)Cl)nc3cc(Cl)ccc32)n1` [Compound I-400], the Biological effectiveness result is on record as “A (No diseased area)”.

Regarding `CCCc1cc(OC)nc(-n2c(C)nc3cc(C)ccc32)n1` [Compound I-965], the Biological effectiveness entry is “A (No diseased area)”.

`CCc1nc2cc(C)ccc2n1-c1nc(OC)cc(OC)n1` [Compound I-334]: the Biological effectiveness entry is on record as “A (No diseased area)”.

`COc1cc(OC)nc(-n2c(Cl)nc3ccc(C)cc32)n1` [Compound I-272]: the Biological effectiveness entry was “A (No diseased area)”.

`COc1nc(OC)nc(-n2cnc3ccccc32)n1` [Compound I-40]: the Biological effectiveness result is recorded as “B (Diseased area of less than 25%)”.

As to `CCCc1nc2cc(Cl)ccc2n1-c1nc(OC)nc(OC)n1` [Compound I-358], the Biological effectiveness result is “A (No diseased area)”.

As to `CCCc1ccc2c(c1)ncn2-c1nc(OC)nc(OC)n1` [Compound I-135], the Biological effectiveness entry is “A (No diseased area)”.

With `CCc1cc(CC)nc(-n2cnc3cc(C)ccc32)n1` [Compound I-1094], the Biological effectiveness entry is listed as “A (No diseased area)”.

For the compound `COc1cc(OC)nc(-n2cnc3ccc(C)cc32)n1` [Compound I-114], the Biological effectiveness entry is “B (Diseased area of less than 25%)”.

For `COc1cc(OC)nc(-n2c(Cl)nc3ccccc32)n1` [Compound I-2], the Biological effectiveness entry is recorded as “A (No diseased area)”.

Take `COc1nc(C)nc(-n2c(N)nc3cc(C)ccc32)n1` [Compound I-767]: the Biological effectiveness result is “B (Diseased area of less than 25%)”.

`CCOc1nc(OC)nc(-n2c(C)nc3cc(Cl)ccc32)n1` [Compound I-438]: the Biological effectiveness entry is given as “A (No diseased area)”.

`CCc1nc2cc(OC)ccc2n1-c1nc(OC)cc(OC)n1` [Compound I-336]: the Biological effectiveness result was “A (No diseased area)”.

With `CCCCOc1cc(C)nc(-n2cnc3ccccc32)n1` [Compound I-872], the Biological effectiveness entry is given as “B (Diseased area of less than 25%)”.

With `COc1cc(OC)nc(-n2c(C#N)nc3cc(C)ccc32)n1` [Compound I-381], the Biological effectiveness entry is recorded as “A (No diseased area)”.

As for `CCOc1nc(OCC)nc(-n2c(C(F)(F)F)nc3cc(OC)ccc32)n1` [Compound I-544], the Biological effectiveness entry is listed as “A (No diseased area)”.

Consider `CCc1ccc2c(c1)nc(C)n2-c1nc(OC)nc(OC)n1` [Compound I-219], for which the Biological effectiveness result was “A (No diseased area)”.

For the compound `CCOc1cc(OCC)nc(-n2c(C)nc3ccc(C(F)(F)F)cc32)n1` [Compound I-510], the Biological effectiveness entry is listed as “A (No diseased area)”.

For the compound `CCOc1cc(C)nc(-n2c(Cl)nc3ccccc32)n1` [Compound I-771], the Biological effectiveness result was “A (No diseased area)”.

Take `COc1cc(OC)nc(-n2c(C)nc3cc(Br)ccc32)n1` [Compound I-185]: the Biological effectiveness entry is listed as “A (No diseased area)”.

For the compound `COc1cc(OC)nc(-n2cnc3cc(Br)ccc32)n1` [Compound I-84], the Biological effectiveness entry was “A (No diseased area)”.

In the case of `CCOc1nc(OCC)nc(-n2c(Cl)nc3cc(Cl)ccc32)n1` [Compound I-534], the Biological effectiveness result is given as “A (No diseased area)”.

For `COc1cc(OC)nc(-n2cnc3cc(C)c(C)cc32)n1` [Compound I-122], the Biological effectiveness result is “B (Diseased area of less than 25%)”.

For the compound `COc1ccnc(-n2c(C)nc3cc(Cl)ccc32)n1` [Compound I-671], the Biological effectiveness result is reported as “B (Diseased area of less than 25%)”.

With `CCOc1nc(OCC)nc(-n2c(C(F)(F)F)nc3cc(Cl)ccc32)n1` [Compound I-545], the Biological effectiveness entry is “A (No diseased area)”.

On to `CCc1ccc2c(c1)ncn2-c1nc(OC)nc(OC)n1` [Compound I-134], for which the Biological effectiveness result was “A (No diseased area)”.

For the compound `COc1nc(OC)nc(-n2c(SC)nc3cc(Cl)ccc32)n1` [Compound I-394], the Biological effectiveness entry is “A (No diseased area)”.

For `COc1cc(OC)nc(-n2c(C)nc3cc(Cl)c(Cl)cc32)n1` [Compound I-209], the Biological effectiveness entry is on record as “B (Diseased area of less than 25%)”.

On to `Cc1ccc2c(c1)nc(C)n2-c1nc(C)cc(C2CC2)n1` [Compound I-1103], for which the Biological effectiveness result is recorded as “B (Diseased area of less than 25%)”.

As for `COc1cc(OC)nc(-n2c(Cl)nc3ccc(Cl)cc32)n1` [Compound I-271], the Biological effectiveness result is reported as “A (No diseased area)”.

For the compound `CCCc1ccc2c(c1)nc(C(F)(F)F)n2-c1nc(OC)nc(OC)n1` [Compound I-314], the Biological effectiveness result is “A (No diseased area)”.

Consider `C=CCOc1cc(C)nc(-n2cnc3ccccc32)n1` [Compound I-883], for which the Biological effectiveness result is recorded as “A (No diseased area)”.

Regarding `CC(C)Oc1nc(OC(C)C)nc(-n2c(C(F)(F)F)nc3cc(Cl)ccc32)n1` [Compound I-595], the Biological effectiveness result is given as “B (Diseased area of less than 25%)”.

In the case of `COc1nc(OC)nc(-n2cnc3cc(C)c(C)cc32)n1` [Compound I-176], the Biological effectiveness result is on record as “A (No diseased area)”.

Regarding `CCOc1ccc2c(c1)nc(Cl)n2-c1nc(OC)cc(OC)n1` [Compound I-261], the Biological effectiveness entry is “B (Diseased area of less than 25%)”.

In the case of `Cc1nc2cc(Cl)c(Cl)cc2n1-c1nc(Cl)cc(Cl)n1` [Compound I-1064], the Biological effectiveness entry was “B (Diseased area of less than 25%)”.

With `Cc1cc(C)nc(-n2cnc3ccccc32)n1` [Compound I-1079], the Biological effectiveness entry was “B (Diseased area of less than 25%)”.

As for `CCCc1cc(OC)nc(-n2c(Cl)nc3ccccc32)n1` [Compound I-960], the Biological effectiveness result is “A (No diseased area)”.
